Measurements from US20190358371A1, “HEMOSTATIC DEVICES AND METHODS OF USE” (priority 2016, published 2019).

Experiments:
[1] = in vitro elution of rifampin and minocycline from p22-27.5 polymers with TXA in release media (Example 15); type: physicochemical; settings: PBS pH 7.4, TXA 0, 0.05 or 5 mg/mL, over 25 hours
Description: B1=PBS pH 7.4; B2=PBS, pH 7.4+TXA (0.05 mg/mL); B3=PBS, pH 7.4+TXA (5 mg/mL).

[2] = stability of rifampin and minocycline in PBS with and without tranexamic acid (Example 14); type: physicochemical; settings: room temperature (about 23 C) and 37 C
blood = test: time required to induce blood clotting in vitro (Examples 17 and 18); type: biochemical
Description: Tests were conducted to compare the time required to induce blood clotting in vitro when different amounts of hemostatic agent is administered in the presence of TYRX (degradable mesh coated with P22-27.5 containing rifampin and minocycline), as shown in FIG. 35.
Tests were conducted to compare the time required for different hemostatic agents to induce blood clotting in vitro versus the time required to induce blood clotting in vitro when no hemostatic agent is administered. In particular, the time required to induce blood clotting was plotted for blood alone, TYRX), Surgicel, TYRX with 1.6 mg of TXA, 1.2 mg of TXA alone and TYRX with 200 mg of TXA. In this example, TYRX refers to a Glycoprene mesh that is coated with P22-27.5 (a polymer in the P22-X family) containing Rifampin and Minocycline.

[3] = given preoperatively; cited from earlier work

Row | SMILES | elution rate from p22-27.5 polymer, effect of TXA in the release media [1] | percentage area in mixtures of rifampin and minocycline in PBS with versus without tranexamic acid [2] | time required to induce blood clotting in vitro (blood; 1.2 mg of TXA alone) | Clotting time with higher amounts of TXA (blood; 1.6 mg TXA vs 200 mg of TXA, in the presence of TYRX) | time to reach plasma concentrations [3]
1 | CO[C@H]1/C=C/O[C@@]2(C)Oc3c(C)c(O)c4c(O)c(c(/C=N/N5CCN(C)CC5)c(O)c4c3C2=O)NC(=O)/C(C)=C\C=C\[C@H](C)[C@H](O)[C@@H](C)[C@@H](O)[C@@H](C)[C@H](OC(C)=O)[C@@H]1C [rifampin] | not affected | substantially the same |  |  | 
2 | NC[C@H]1CC[C@H](C(=O)O)CC1 [tranexamic acid] |  |  | about 19 minutes | increased | 5 to 15 min
